The term IC50 denotes the concentration that inhibits the measured activity by half. High values mean a need for much substance, low ones inhibition by little substance.

Read-outs that look alike come from different tables or passages of the source. Square brackets hold non-standard residues; d marks the D form. Peptide text beside a SMILES is read from it. Dolaproine = CO[C@@H]([C@@H]1CCCN1)[C@@H](C)C(=O)O; Dil = CC[C@H](C)[C@H](NC)[C@@H](CC(=O)O)OC; NMeV = CN[C@H](C(=O)O)C(C)C Some results are limits rather than exact numbers.

Data on three molecules can be found in patent publication US20200392108A1, “ANTIBODY-DRUG CONJUGATES AND RELATED COMPOUNDS, COMPOSITIONS AND METHODS” (Magenta Therapeutics, Inc., priority 2011, published 2020).

The subject of the assay is BT474 (HER2+) cell line. The experiment in a line: Standard cellular cytotoxicity assay, BT474. Type of assay: cell-based, human. The source says: The cytotoxicity of tubulysins T1 and T2 was compared to the cytotoxicity of MMAF using the BT474 (HER2+) cell line in a standard cellular cytotoxicity assay.

`CC[C@H](C)[C@@H]([C@@H](CC(=O)N1CCC[C@H]1[C@H](OC)[C@@H](C)C(=O)N[C@@H](Cc1ccccc1)C(=O)O)OC)N(C)C(=O)[C@@H](NC(=O)[C@@H](NC)C(C)C)C(C)C` [MMAF, monomethylauristatin F] (H-[NMeV]V[Dil][Dolaproine]F-OH) displayed an IC50 of 93 nM. This lies in the double-digit nanomolar range.
For the molecule `CC[C@H](C)[C@H](NC(=O)[C@H]1CCCCN1C)C(=O)N(C)[C@H](C[C@@H](OC(C)=O)c1nc(C(=O)O)cs1)C(C)C` [T1], the IC50 (Homo sapiens, BT-474) amounted to 11 nM. That is a double-digit nanomolar value.
Same read-out and setting: in the case of `CC[C@H](C)[C@H](NC(=O)[C@H]1CCCCN1C)C(=O)N(C)[C@H](C[C@@H](OC(C)=O)c1nc(C(=O)N[C@@H](Cc2ccccc2)C[C@H](C)C(=O)O)cs1)C(C)C` [T2] it was below 0.1 nM.
